The source of these data is patent US20240148821A1, “PHARMACEUTICAL USE OF CYCLIC PEPTIDE COMPOUND” (CHUGAI SEIYAKU KABUSHIKI KAISHA, priority 2021, published 2024).

SMILES strings stand for the structures. Numbered stars: 1 amine (or outer) side, 2 acyl side, 3 side chain; on linkers, the order of the positions; unused ones are H or OH. Bridge positions count the residues as written; N and C are the ends. Square brackets hold non-standard residues; d marks the D form. Peptide text beside a SMILES is read from it. * marks the point of attachment. hPhe(3-Cl-4-CF3) = N[C@@H](CCc1ccc(C(F)(F)F)c(Cl)c1)C(=O)O; hPhe(3-F,4-CF3) = N[C@@H](CCc1ccc(C(F)(F)F)c(F)c1)C(=O)O; NMePhe(4-Cl) = CN[C@@H](Cc1ccc(Cl)cc1)C(=O)O; NMePhe(4-Me) = CN[C@@H](Cc1ccc(C)cc1)C(=O)O; X128 = O=C([C@H](Cc1cccc(F)c1F)N[*:1])[*:2]; NMePhe(3-F) = CN[C@@H](Cc1cccc(F)c1)C(=O)O; NMePhe(4-F) = CN[C@@H](Cc1ccc(F)cc1)C(=O)O; NMePhe(2-F) = CN[C@@H](Cc1ccccc1F)C(=O)O; NMeGly(cPent) = CN[C@H](C(=O)O)C1CCCC1; Phe(3-I) = N[C@@H](Cc1cccc(I)c1)C(=O)O; dβ3hPip = O=C(C[C@H]1CCCCN1[*:1])[*:2]; NMeY = CN[C@@H](Cc1ccc(O)cc1)C(=O)O; NMeCha = CN[C@@H](CC1CCCCC1)C(=O)O; NMeChg = CN[C@H](C(=O)O)C1CCCCC1; NMeF = CN[C@@H](Cc1ccccc1)C(=O)O; NMeI = CC[C@H](C)[C@H](NC)C(=O)O; NMeD = CN[C@@H](CC(=O)O)C(=O)O; NMeL = CN[C@@H](CC(C)C)C(=O)O; NMeV = CN[C@H](C(=O)O)C(C)C; d(β3hA) = C[C@@H](N)CC(=O)O; NMeAbu = CC[C@H](NC)C(=O)O; NMeA = CN[C@@H](C)C(=O)O; NMeAib = CNC(C)(C)C(=O)O; Nle = CCCC[C@H](N)C(=O)O; Piperidide = C1CCN(*)CC1; dNMeA = CN[C@H](C)C(=O)O; Ac5c = NC1(C(=O)O)CCCC1; Aze = O=C(O)[C@@H]1CCN1; βAla = NCCC(=O)O; Sar = CNCC(=O)O

This assay concerns Human pancreatic cancer cell line AsPC-1 (G12D mutation Kras). The assay can be described thus: AsPC-1 cell growth inhibition (AsPC-1 CGI). In kind it is cell-based. The conditions noted are these: read-out: AsPC-1 cell growth inhibition, 50% growth inhibitory concentration (IC50 value); 96 hours, CellTiter-Glo, values classified in ranges. Background: Cellular ATP, detected with luciferase, serves as a proxy for viable cell number.
Method: Test compounds were serially dilated with dimethyl sulfoxide, and 200 nL was then dispensed to a U-bottom 96-well plate using Labcyte Echo. […] The cell suspension was dispensed to a. plate containing a test compound at 100 μL per well and incubated at 37° C. in a 5% carbon dioxide gas incubator. 96 hours later, 80 μL of CellTiter-Glo (Promega) was added to each well and fluorescence was measured.
`CC[C@H](C)[C@@H]1NC(=O)[C@H](CC(C)C)N(C)C(=O)C[C@H]2CCCCN2C(=O)[C@H](C(C)C)N(C)C(=O)C2(CCCC2)NC(=O)[C@@H]2CCCN2C(=O)[C@H](CCc2ccc(C(F)(F)F)c(F)c2)NC(=O)CN(C)C(=O)[C@H](CC2CCCCC2)N(C)C(=O)CN(C)C(=O)CN(C)C1=O` [Compound 142] (cyclo([Ac5c][NMeV][dβ3hPip][NMeL]I[Sar][Sar][NMeCha][Sar][hPhe(3-F,4-CF3)]P)): the IC50 is > 500 nM. With `CC[C@H](C)[C@@H]1NC(=O)[C@H](C)N(C)C(=O)C[C@@H](C)NC(=O)[C@H](C(C)C)N(C)C(=O)C2(CCCC2)NC(=O)[C@@H]2CCCN2C(=O)[C@H](CCc2ccc(C(F)(F)F)c(Cl)c2)NC(=O)[C@H]2CCCN2C(=O)[C@H](Cc2ccc(F)cc2)N(C)C(=O)[C@@H]2CCCN2C(=O)CN(C)C1=O` [Compound 1667] (cyclo([Ac5c][NMeV][d(β3hA)][NMeA]I[Sar]P[NMePhe(4-F)][dP][hPhe(3-Cl-4-CF3)]P)) the figure was > 500 nM. Take `CCCC[C@@H]1NC(=O)[C@H](Cc2cccc(F)c2F)NC(=O)CN(C)C(=O)[C@H](Cc2ccc(OC)cc2)N(C)C(=O)[C@@H]2CCN2C(=O)[C@H](C)N(C)C(=O)[C@H]([C@@H](C)CC)NC(=O)[C@H](CC)N(C)C(=O)C[C@@H](C(=O)N2CCCCC2)N(C)C(=O)[C@H](CC(C)C)NC(=O)C(C)(C)N(C)C1=O` [Compound 1256] ([NMeAbu]I[NMeA][Aze][NMeY](Me)[Sar][X128][Nle][NMeAib]L[NMeD]-Piperidide; lactam N-11): the IC50 is > 500 nM. As for `CC[C@H](C)[C@@H]1NC(=O)[C@H](CC(C)C)N(C)C(=O)C[C@@H](C(=O)N(C)C)N(C)C(=O)[C@H](C2CCCC2)N(C)C(=O)C2(CCCC2)NC(=O)[C@H](Cc2cccc(F)c2)N(C)C(=O)[C@H](CCc2ccc(C(F)(F)F)c(Cl)c2)NC(=O)CN(C)C(=O)[C@H](CC2CCCCC2)N(C)C(=O)[C@@H]2CCN2C(=O)[C@H](C)N(C)C1=O` [Compound 95] ([NMeL]I[NMeA][Aze][NMeCha][Sar][hPhe(3-Cl-4-CF3)][NMePhe(3-F)][Ac5c][NMeGly(cPent)][NMeD]-NMe2; lactam N-11), the IC50 is > 500 nM.

With `CC[C@H](C)[C@@H]1NC(=O)[C@H](CC(C)C)N(C)C(=O)C[C@@H](C(=O)N2CCCCC2)N(C)C(=O)[C@H](CC(C)C)NC(=O)C(C)(C)N(C)C(=O)[C@H](CC(C)C)NC(=O)[C@H](Cc2cccc(I)c2)NC(=O)CN(C)C(=O)[C@H](Cc2ccc(Cl)cc2)N(C)C(=O)CN(C)C(=O)CN(C)C1=O` [Compound 295] ([NMeL]I[Sar][Sar][NMePhe(4-Cl)][Sar][Phe(3-I)]L[NMeAib]L[NMeD]-Piperidide; lactam N-11), the IC50 is > 500 nM.

With `CC[C@H](C)[C@@H]1NC(=O)[C@H](CC(C)C)N(C)C(=O)C[C@@H](C)NC(=O)[C@H](C(C)C)N(C)C(=O)C2(CCCC2)NC(=O)[C@@H]2CCCN2C(=O)[C@H](CCc2ccc(C(F)(F)F)c(F)c2)NC(=O)CN(C)C(=O)[C@H](CC2CCCCC2)N(C)C(=O)CN(C)C(=O)CN(C)C1=O` [Compound 1534] (cyclo([Ac5c][NMeV][d(β3hA)][NMeL]I[Sar][Sar][NMeCha][Sar][hPhe(3-F,4-CF3)]P)), the IC50 is > 500 nM.

Turning to `CC[C@H](C)[C@@H]1NC(=O)[C@H](CC(C)C)N(C)C(=O)C[C@@H](C)NC(=O)[C@H](C(C)C)N(C)C(=O)C2(CCCC2)NC(=O)[C@@H]2CCCN2C(=O)[C@H](CCc2ccc(C(F)(F)F)c(Cl)c2)NC(=O)CN(C)C(=O)[C@H](Cc2ccccc2F)N(C)C(=O)CN(C)C(=O)CN(C)C1=O` [Compound 1585] (cyclo([Ac5c][NMeV][d(β3hA)][NMeL]I[Sar][Sar][NMePhe(2-F)][Sar][hPhe(3-Cl-4-CF3)]P)), the IC50 was > 500 nM. With `CC[C@H](C)[C@@H]1NC(=O)[C@H](C)N(C)C(=O)C[C@@H](C)NC(=O)[C@H](C2CCCC2)N(C)C(=O)C2(CCCC2)NC(=O)[C@@H]2CCCN2C(=O)[C@H](CCc2ccc(C(F)(F)F)c(Cl)c2)NC(=O)[C@@H](C)N(C)C(=O)[C@H](Cc2ccc(F)cc2)N(C)C(=O)[C@@H]2CCN2C(=O)[C@H](C)N(C)C1=O` [Compound 584] (cyclo([Ac5c][NMeGly(cPent)][d(β3hA)][NMeA]I[NMeA][Aze][NMePhe(4-F)][dNMeA][hPhe(3-Cl-4-CF3)]P)) the figure was > 500 nM; with `CC[C@H](C)[C@@H]1NC(=O)[C@H](CC(C)C)N(C)C(=O)C[C@@H](C(=O)N(C)C)N(C)C(=O)[C@H]([C@@H](C)CC)N(C)C(=O)C2(CCCC2)NC(=O)[C@@H](C)NC(=O)[C@H](CCc2ccc(C(F)(F)F)c(Cl)c2)NC(=O)CN(C)C(=O)[C@H](Cc2ccc(C)cc2)N(C)C(=O)[C@@H]2CCN2C(=O)[C@H](C)N(C)C1=O` [Compound 67] ([NMeL]I[NMeA][Aze][NMePhe(4-Me)][Sar][hPhe(3-Cl-4-CF3)][dA][Ac5c][NMeI][NMeD]-NMe2; lactam N-11), > 500 nM. With `CC[C@H](C)[C@@H]1NC(=O)CCNC(=O)[C@H](Cc2ccccc2)N(C)C(=O)[C@H](C2CCCCC2)N(C)C(=O)C2(CCCC2)NC(=O)[C@@H]2CCCN2C(=O)[C@H](CCc2ccc(C(F)(F)F)c(Cl)c2)NC(=O)CN(C)C(=O)[C@H](CC2CCCCC2)N(C)C(=O)CN(C)C(=O)CN(C)C1=O` [Compound 1007] (cyclo([Ac5c][NMeChg][NMeF][βAla]I[Sar][Sar][NMeCha][Sar][hPhe(3-Cl-4-CF3)]P)) the figure was > 500 nM.
